The results in this text go back to patent US20120129928A1, “Chlorine-Free Liquid Microbicide Treatment” (University of Georgia Research Foundation, Inc., priority 2010, published 2012).

The subject of one assay is various yeast species. The experiment in a line: Effect of levulinic acids plus SDS at 21° C. on various yeast species. The note with it: for Yeast counts at min: 1: 1 min; for Yeast counts at min: 2: 2 min; for Yeast counts at min: 5: 5 min; for Yeast counts at min: 10: 10 min; for Yeast counts at min: 20: 20 min; for Yeast counts at min: 30: 30 min; for Yeast counts at min: 60: 60 min. It is filed as cell-based.

The next assay deals with S. enteritidis. Nature of the assay: Reduction of S. enteritidis in water treated with organic acids and SDS. The class given is cell-based, Salmonella enteritidis.
The next assay concerns S. typhimurium DT 104. It is filed as cell-based, Salmonella typhimurium DT104. The note with it: water, 21° C.
The next assay concerns L. monocytogenes. It is filed as cell-based, Listeria monocytogenes. Conditions: 21° C.
The subject of assay [1] is spores of Bacillus anthracis Sterne. The class given is cell-based, Bacillus anthracis Sterne (34F2).
In a further assay the test system is aerobic plate count. Nature of the assay: Aerobic plate counts (APC) on produce treated in a 4-L tank.
Another assay concerns yeasts and molds. The experiment in a line: Yeast and mold (Y&M) counts on produce and in treatment solution, 4-L tank.
For the next assay, the system named is S. typhimurium. Nature of the assay: S. typhimurium counts on produce (apples, celery, onions, cantaloupes) and in treatment solution, 4-L tank.

Several values for one entry are separate records, joined by “and”; a condition that tells them apart may be missing. Identical values can stand only once. Like-named read-outs stand apart in the source and are kept apart here.

Regarding `CCCCCCCCCCCCOS(=O)(=O)[O-].[Na+]` [1.0% SDS], in the assay with various yeast species (Candida magnoliae), the “Yeast counts at min: 1” value is 3.5 log CFU/ml, the “Yeast counts at min: 2” value is on record as 3.3 log CFU/ml, the “Yeast counts at min: 5” value is listed as 3.2 log CFU/ml and the “Yeast counts at min: 10” value is reported as 3.2 log CFU/ml. Besides, in the assay on various yeast species (Candida magnoliae), the “Yeast counts at min: 20” value amounted to 2.7 log CFU/ml, the “Yeast counts at min: 30” value turned out to be 3.0 log CFU/ml and the “Yeast counts at min: 60” value amounted to 3.1 log CFU/ml. Also, in the assay with various yeast species (Debaryomyces hansenii), the “Yeast counts at min: 1” value is given as 4.5 log CFU/ml, the “Yeast counts at min: 2” value stood at 4.1 log CFU/ml, the “Yeast counts at min: 5” value stood at 4.5 log CFU/ml and the “Yeast counts at min: 10” value is reported as 4.4 log CFU/ml. Moreover, in the assay on various yeast species (Debaryomyces hansenii), the “Yeast counts at min: 20” value was found to be 4.5 log CFU/ml, the “Yeast counts at min: 30” value is reported as 4.5 log CFU/ml and the “Yeast counts at min: 60” value is on record as 4.4 log CFU/ml. Further, in the assay on various yeast species (Geotrichum candidum), the “Yeast counts at min: 1” value is recorded as 3.8 log CFU/ml, the “Yeast counts at min: 2” value worked out at 3.3 log CFU/ml, the “Yeast counts at min: 5” value was found to be 3.5 log CFU/ml and the “Yeast counts at min: 10” value came out at 3.7 log CFU/ml. Besides, in the assay on various yeast species (Geotrichum candidum), the “Yeast counts at min: 20” value is reported as 3.5 log CFU/ml, the “Yeast counts at min: 30” value is 3.4 log CFU/ml and the “Yeast counts at min: 60” value was found to be 3.3 log CFU/ml. For the same molecule, in the assay with various yeast species (Saccharomyces cerevisiae), the “Yeast counts at min: 1” value amounted to 2.4 log CFU/ml, the “Yeast counts at min: 2” value amounted to 2.6 log CFU/ml, the “Yeast counts at min: 5” value came to 2.3 log CFU/ml and the “Yeast counts at min: 10” value is 2.8 log CFU/ml. In the assay on various yeast species (Saccharomyces cerevisiae), the “Yeast counts at min: 20” value was 2.7 log CFU/ml, the “Yeast counts at min: 30” value stood at 2.3 log CFU/ml and the “Yeast counts at min: 60” value was determined as 2.4 log CFU/ml. Moreover, in the assay on various yeast species (Zygosaccharomyces bailii), the “Yeast counts at min: 1” value worked out at 4.7 log CFU/ml, the “Yeast counts at min: 2” value was found to be 4.6 log CFU/ml, the “Yeast counts at min: 5” value is listed as 4.6 log CFU/ml and the “Yeast counts at min: 10” value was determined as 4.6 log CFU/ml. Further, in the assay on various yeast species (Zygosaccharomyces bailii), the “Yeast counts at min: 20” value is 4.5 log CFU/ml, the “Yeast counts at min: 30” value was 4.5 log CFU/ml and the “Yeast counts at min: 60” value was determined as 4.4 log CFU/ml.

Consider `CC(=O)CCC(=O)O` [2.0% levulinic acids], for which, in the assay with various yeast species (Candida magnoliae), the “Yeast counts at min: 1” value is 5.9 log CFU/ml, the “Yeast counts at min: 2” value is recorded as 5.9 log CFU/ml, the “Yeast counts at min: 5” value is reported as 5.9 log CFU/ml and the “Yeast counts at min: 10” value turned out to be 6.0 log CFU/ml. Besides, in the assay with various yeast species (Candida magnoliae), the “Yeast counts at min: 20” value is 6.0 log CFU/ml, the “Yeast counts at min: 30” value was 5.9 log CFU/ml and the “Yeast counts at min: 60” value stood at 5.8 log CFU/ml.

As to `CCCCCCCCCCCCOS(=O)(=O)[O-].[Na+]` [SDS, sodium dodecyl sulfate], the Salmonella reduction result with S. enteritidis is on record as “did not reduce”. Also, the S. enteritidis counts in the assay on S. enteritidis (sulfate) was 7.1 log CFU/ml and 7.0 log CFU/ml and 7.2 log CFU/ml. Besides, the “S. typhimurium DT 104 counts” value with S. typhimurium DT 104 (0 min) is on record as 7.0 log CFU/ml; in the assay on S. typhimurium DT 104 (1 min), 7.0 log CFU/ml; in the assay on S. typhimurium DT 104 (2 min), 6.8 log CFU/ml; in the assay with S. typhimurium DT 104 (5 min), 6.9 log CFU/ml; with S. typhimurium DT 104 (10 min), 6.8 log CFU/ml; in the assay on S. typhimurium DT 104 (20 min) it was 6.9 log CFU/ml. Moreover, the “S. typhimurium DT 104 counts” value in the assay with S. typhimurium DT 104 (30 min) and in the assay on S. typhimurium DT 104 (60 min) was 6.9 log CFU/ml each time. Also, the L. monocytogenes counts with L. monocytogenes (0 min) stood at 6.6 ± 0.3 log CFU/ml; with L. monocytogenes (2 min) it was 6.4 ± 0.1 log CFU/ml; in the assay with L. monocytogenes (5 min) it was 6.0 ± 0.1 log CFU/ml; with L. monocytogenes (10 min) it was 5.0 ± 0.3 log CFU/ml; with L. monocytogenes (20 min) it was 3.8 ± 0.2 log CFU/ml; in the assay with L. monocytogenes (30 min), 3.3 ± 0.1 log CFU/ml. Besides, the “CFU % recovery (as compared to control flask F)” value (from here on “CFU % recovery”) in assay [1] (Experiment A3, 10 min) was determined as 65%; in assay [1] (Experiment A3, 45 min), 94%; in assay [1] (Experiment A3, 180 min), 95%; in assay [1] (Experiment A4 absent heat, RT, 0 min) it was 85%; in assay [1] (Experiment A4 absent heat, RT, 1 h), 90%; in assay [1] (Experiment A4 absent heat, RT, 2 h) it was 87%. For the same molecule, the “CFU % recovery” value in assay [1] (Experiment A4 absent heat, RT, 3 h) came to 98%; in assay [1] (Experiment A4 absent heat, RT, 4 h), 79%; in assay [1] (Experiment A4 with heat, 65° C., 0 min) it was 48%; in assay [1] (Experiment A4 with heat, 65° C., 1 h), 53%; in assay [1] (Experiment A4 with heat, 65° C., 2 h), 74%; in assay [1] (Experiment A4 with heat, 65° C., 3 h) it was 68%. Further, the “CFU % recovery” value was found to be 71% in assay [1] (Experiment A5 with heat, 65° C., 0 min); 69% in assay [1] (Experiment A5 with heat, 65° C., 1 h); 53% in assay [1] (Experiment A5 with heat, 65° C., 2 h); 71% in assay [1] (Experiment A5 with heat, 65° C., 3 h); 54% in assay [1] (Experiment A5 with heat, 65° C., 4 h).

`CC(=O)CCC(=O)O` [2% levulinic acid]: in the assay with various yeast species (Zygosaccharomyces bailii), the “Yeast counts at min: 1” value is given as 5.4 log CFU/ml, the “Yeast counts at min: 2” value turned out to be 5.5 log CFU/ml, the “Yeast counts at min: 5” value is given as 5.4 log CFU/ml and the “Yeast counts at min: 10” value worked out at 5.4 log CFU/ml. In the assay on various yeast species (Zygosaccharomyces bailii), the “Yeast counts at min: 20” value was 5.4 log CFU/ml, the “Yeast counts at min: 30” value is reported as 5.4 log CFU/ml and the “Yeast counts at min: 60” value is recorded as 5.3 log CFU/ml.

For the molecule `CC(=O)O` [0.5% acetic acid, acetic acid], the S. enteritidis counts in the assay with S. enteritidis (water, 21° C., 0 min) is 7.1 log CFU/ml; with S. enteritidis (water, 21° C., 2 min), 7.0 log CFU/ml; in the assay with S. enteritidis (water, 21° C., 5 min), 6.8 log CFU/ml; in the assay with S. enteritidis (water, 21° C., 10 min), 6.7 log CFU/ml; in the assay with S. enteritidis (water, 21° C., 20 min), 6.6 log CFU/ml; with S. enteritidis (water, 21° C., 30 min), 6.5 log CFU/ml.

Regarding “acidified sodium chlorite [50 ppm acidified sodium chlorite]”, in the assay with aerobic plate count, the “reduction of APC on onions” value is less than 0.5 log CFU per onion. Moreover, the “reduction of yeast and mold counts on onions” value in the assay with yeasts and molds was less than 0.5 log CFU per onion. Moreover, the “reduction of S. typhimurium on onions” value with S. typhimurium is on record as less than 0.5 log CFU per onion.
